# Measurements taken from patent publication US4031243A, “2-(4-Isobutyl phenyl)butyric acid, salts thereof, and pharmaceutical compositions containing the same” (priority 1975, dated 1977).
# Experiments:
# gastric lining = experiment: General statements on toxicity, gastric tolerance and activity; details: capsule, 100 to 300 milligrams, with talcum and magnesium stearate
# [1] = Dissolution of capsule in the stomach (statement); type: physicochemical; details: 100 to 300 milligrams, with talcum and magnesium stearate
# granulation tissue = experiment: Antiinflammatory activity: Formation of granulation tissue in the rat; type: in vivo; details: oral; for ED50: Rattus norvegicus, 50% inhibition of granulation tissue, lineal regression; for Weight of granulated tissue ± SEM: control 198 ± 3.63, in mg (unit assumed)
# Excerpt: Antiinflammatory activity: Formation of granulation tissue in the rat
# Described by N. Pisanti, G. Volterra and A. Meli, in a paper entitled "Pharmacological data on a new antiinflammatory agent", published in Il Farmaco(Ed. Scientifica) vol. 38, page 51 (1973).
# ED50 in this test represents the effective dose in milligrams per kilogram of body weight that is required to inhibit by an increment of 50% the formulation of granulation tissue in the rat.
# [2] = Analgesic activity: Tail pinch test in the mouse; type: in vivo; details: for ED50: Mus musculus; for Animals Not protected, TOTALS / Animals Protected, TOTALS: all doses (60-240 mg/kg)
# Excerpt: Analgesic activity: Tail pinch test in the mouse Described by F. Haffner in Deutsch. med. […] ED50 in this test represents the effective dose in milligrams per kilogram of body weight that is required to increase the reaction time by a factor of at least 3 over the reaction time of the same animal before the test substance had been administered.
# [3] = system: edema produced by administration of carageenin; experiment: animal or person; type: in vivo, rat; design: Increment of Edema ± SEM: unit not given here; details: for ED50: Rattus norvegicus, lineal regression; for "+" animals, printed in place of increment of edema: rat, in vivo
# Excerpt: Antiinflammatory activity: Acute rat paw edema test Described by C. H. Winter, E. A. Risley and G. W. Nuss in a paper entitled "[…]-induced edema in hind paw of the rat as an assay for antiinflammatory drugs", published in Proc. Soc. Exp. Biol. Med., volume 111, page 544 (1962). ED50 in this test represents the effective dose in milligrams per kilogram of body weight that is required to inhibit edema produced by administration of carageenin to the rat.
# [4] = Analgesic activity: Hot-plate test; type: in vivo; details: for Reaction time Half ± SEM: control 103.3 ± 7.9
# mucosa = experiment: Ulcerogenic assay; type: in vivo, rat; details: 20 rats, scale 0 no ulcers to 3 ulceration with craters
# Excerpt: (§1) Described by S. Wong, J. F. Gardocki and T. P. Pruss in J. Pharm. Exper.
# (§2) UD50 represents the dose in milligrams per kilogram of body weight that is based upon a point scale as follows:
# (§3) 3 -- ulceration with craters
# (§4) U.S. 50 Half ulcerogenic dose -- dose which produces 50% of the
# (§5) maximum possible score points in one group of rats.
# Ulcerogenic assay = type: in vivo, rat; details: rat, in vivo; dose which produces 50% of the maximum possible score points in one group of rats; lineal regression; read-out: UD50 (the source's name)
# Excerpt: as §1, §2, §3, §4, §5
# [5] = 144 h, Table 2, oral, administration 6 days
# [6] = Table 1, oral, 120 mg/kg, control 14.80 ± 0.94
# [7] = Table 1, oral, 180 mg/kg, control 14.80 ± 0.94
# [8] = Table 1, oral, 240 mg/kg, control 14.80 ± 0.94
# [9] = Table 2, oral, 120 mg/kg, administration 6 days
# [10] = Table 2, oral, 120 mg/kg, administration 6 days, control 15.35 ± 0.31
# [11] = Table 2, oral, 180 mg/kg, administration 6 days
# [12] = Table 2, oral, 180 mg/kg, administration 6 days, control 15.35 ± 0.31
# [13] = Table 2, oral, 240 mg/kg, administration 6 days
# [14] = Table 2, oral, 240 mg/kg, administration 6 days, control 15.35 ± 0.31
# [15] = Table 3, I.P., 120 mg/kg, control 12.50 ± 1.66
structure (smiles),measurement,setting,value
CCC(C(=O)[O-])c1ccc(CC(C)C)cc1.[Na+] (centres unmarked),gastric upset or irritation,gastric lining,without producing a gastric upset or irritation
same,dissolution in the stomach,[1],dissolves well in the stomach
"CCC(C(=O)O)c1ccc(CC(C)C)cc1 (centres unmarked) [2-(4-Isobutylphenyl)butyric acid, 2-(4-isobutylphenyl) butyric acid]",ED50,granulation tissue,252 mg/kg
same,% Inhibition,granulation tissue; 120 mg/kg,11.11%
same,Weight of granulated tissue ± SEM,granulation tissue; 120 mg/kg,176 ± 13.09
same,% Inhibition,granulation tissue; 180 mg/kg,34.34%
same,Weight of granulated tissue ± SEM,granulation tissue; 180 mg/kg,130 ± 8.54
same,% Inhibition,granulation tissue; 240 mg/kg,46.46%
same,Weight of granulated tissue ± SEM,granulation tissue; 240 mg/kg,106 ± 9.97
same,ED50,"[2]; oral, reaction time increased by factor of at least 3, lineal regression, read-out: ED50",118 mg/kg
same,% Protection,"[2]; oral, 60 mg/kg",15%
same,Animals Not protected,"[2]; oral, 60 mg/kg",17
same,Animals Protected,"[2]; oral, 60 mg/kg",3
same,% Protection,"[2]; oral, 120 mg/kg",50%
same,Animals Not protected,"[2]; oral, 120 mg/kg",10
same,Animals Protected,"[2]; oral, 120 mg/kg",10
same,% Protection,"[2]; oral, 180 mg/kg",70%
same,Animals Not protected,"[2]; oral, 180 mg/kg",6
same,Animals Protected,"[2]; oral, 180 mg/kg",14
same,% Protection,"[2]; oral, 240 mg/kg",90%
same,Animals Not protected,"[2]; oral, 240 mg/kg",2
same,Animals Protected,"[2]; oral, 240 mg/kg",18
same,"Animals Not protected, TOTALS",[2]; oral,35
same,"Animals Protected, TOTALS",[2]; oral,45
same,ED50,[3]; [5],204 mg/kg
same,ED50,"[3]; ip, Table 3, I.P.",133 mg/kg
same,ED50,"[3]; Table 1, oral",116 mg/kg
same,% Inhibition,"[3]; Table 1, oral, 120 mg/kg",51.01%
same,Increment of Edema ± SEM,[3]; [6],7.25 ± 1.00
same,% Inhibition,"[3]; Table 1, oral, 180 mg/kg",58.10%
same,Increment of Edema ± SEM,[3]; [7],6.20 ± 0.84
same,% Inhibition,"[3]; Table 1, oral, 240 mg/kg",66.21%
same,Increment of Edema ± SEM,[3]; [8],5.00 ± 0.97
same,% Inhibition,[3]; [9],24.03%
same,Increment of Edema ± SEM,[3]; [10],11.66 ± 0.67
same,% Inhibition,[3]; [11],40.97%
same,Increment of Edema ± SEM,[3]; [12],9.06 ± 0.39
same,% Inhibition,[3]; [13],60.06%
same,Increment of Edema ± SEM,[3]; [14],6.13 ± 0.35
same,% Inhibition,"[3]; Table 3, I.P., 120 mg/kg",49.36%
same,Increment of Edema ± SEM,[3]; [15],6.33 ± 0.88
same,% Inhibition,"[3]; Table 3, I.P., 240 mg/kg",64.00%
same,Increment of Edema ± SEM,"[3]; Table 3, I.P., 240 mg/kg, control 12.50 ± 1.66",4.50 ± 1.05
same,% Inhibition,"[3]; Table 3, I.P., 360 mg/kg",92.96%
same,Increment of Edema ± SEM,"[3]; Table 3, I.P., 360 mg/kg, control 12.50 ± 1.66",0.88 ± 0.26
same,% Increase of Reaction time,"[4]; oral, 60 mg/kg",7.0%
same,Reaction time Half ± SEM,"[4]; oral, 60 mg/kg",110.6 ± 7.0 s
same,% Increase of Reaction time,"[4]; oral, 120 mg/kg",35.0%
same,Reaction time Half ± SEM,"[4]; oral, 120 mg/kg",139.5 ± 10.7 s
same,% Increase of Reaction time,"[4]; oral, 180 mg/kg",37.0%
same,Reaction time Half ± SEM,"[4]; oral, 180 mg/kg",142.3 ± 7.6 s
same,% Increase of Reaction time,"[4]; oral, 240 mg/kg",78.4%
same,Reaction time Half ± SEM,"[4]; oral, 240 mg/kg",184.3 ± 13.1 s
same,ED50,"[4]; oral, increase by 50% of reaction time, lineal regression, read-out: ED50",162 mg/kg
same,Point score,mucosa; 60 mg/kg/day,2
same,Point score,mucosa; 120 mg/kg/day,7
same,Point score,mucosa; 240 mg/kg/day,14
"CC(=O)Oc1ccccc1C(=O)O [Aspirin, reference compound]",ED50,[2]; po,115 mg/kg
same,% Protection,"[2]; oral, 60 mg/kg",13.3%
same,Animals Not protected,"[2]; oral, 60 mg/kg",13
same,Animals Protected,"[2]; oral, 60 mg/kg",2
same,% Protection,"[2]; oral, 120 mg/kg",53.3%
same,Animals Not protected,"[2]; oral, 120 mg/kg",7
same,Animals Protected,"[2]; oral, 120 mg/kg",8
same,% Protection,"[2]; oral, 180 mg/kg",73.3%
same,Animals Not protected,"[2]; oral, 180 mg/kg",4
same,Animals Protected,"[2]; oral, 180 mg/kg",11
same,% Protection,"[2]; oral, 240 mg/kg",93.3%
same,Animals Not protected,"[2]; oral, 240 mg/kg",1
same,Animals Protected,"[2]; oral, 240 mg/kg",14
same,"Animals Not protected, TOTALS",[2]; oral,25
same,"Animals Protected, TOTALS",[2]; oral,35
same,% Increase of Reaction time,"[4]; oral, 120 mg/kg",22.7%
same,Reaction time Half ± SEM,"[4]; oral, 120 mg/kg",126.8 ± 13.7 s
same,% Increase of Reaction time,"[4]; oral, 180 mg/kg",57.4%
same,Reaction time Half ± SEM,"[4]; oral, 180 mg/kg",162.6 ± 8.0 s
same,% Increase of Reaction time,"[4]; oral, 240 mg/kg",69.5%
same,Reaction time Half ± SEM,"[4]; oral, 240 mg/kg",175.1 ± 5.9 s
same,ED50,[4]; po,173 mg/kg
"CCCCC1C(=O)N(c2ccccc2)N(c2ccccc2)C1=O [Phenylbutazone, reference compound]",ED50,granulation tissue,264 mg/kg
same,% Inhibition,granulation tissue; 120 mg/kg,15.65%
same,Weight of granulated tissue ± SEM,granulation tissue; 120 mg/kg,167 ± 8.25
same,% Inhibition,granulation tissue; 180 mg/kg,35.35%
same,% Inhibition,granulation tissue; 240 mg/kg,44.94%
same,Weight of granulated tissue ± SEM,granulation tissue; 240 mg/kg,109 ± 8.77
same,ED50,[3]; [5],177 mg/kg
same,ED50,"[3]; Table 1, oral",77.1 mg/kg
same,% Inhibition,"[3]; Table 1, oral, 120 mg/kg",56.08%
same,Increment of Edema ± SEM,[3]; [6],6.50 ± 1.02
same,% Inhibition,"[3]; Table 1, oral, 180 mg/kg",64.86%
same,Increment of Edema ± SEM,[3]; [7],5.20 ± 0.41
same,% Inhibition,"[3]; Table 1, oral, 240 mg/kg",70.94%
same,Increment of Edema ± SEM,[3]; [8],4.30 ± 0.89
same,% Inhibition,[3]; [9],34.85%
same,Increment of Edema ± SEM,[3]; [10],10.00 ± 0.73
same,% Inhibition,[3]; [11],42.28%
same,Increment of Edema ± SEM,[3]; [12],8.86 ± 0.36
same,% Inhibition,[3]; [13],69.64%
same,Increment of Edema ± SEM,[3]; [14],4.66 ± 0.54
same,% Inhibition,"[3]; Table 3, I.P., 120 mg/kg",45.36%
same,Increment of Edema ± SEM,[3]; [15],6.83 ± 0.94
same,"""+"" animals, printed in place of increment of edema","[3]; ip, 240 mg/kg",+ four animals
same,"""+"" animals, printed in place of increment of edema","[3]; ip, 360 mg/kg",+ five animals
same,TD50,Ulcerogenic assay,226 mg/kg
same,Point score,mucosa; 60 mg/kg/day,8
same,Point score,mucosa; 120 mg/kg/day,17
same,Point score,mucosa; 240 mg/kg/day,32
